# Assay results published in patent publication US20060160895A1, “Anti-cancer agents” (priority 2004, published 2006).
# What was measured:
# Type in all cases: cell-based, human
# [1] = test system: gastric adenocarcinoma (AGS); test: in vitro MTT proliferation assay, AGS cells; settings: 48 hrs; for inhibition of cancer cell line AGS: 0.3-100 μg/ml, absorbance at 492 nm; for IC50 values for AGS: calculated with XLfit
# Description: (§1) An in vitro assay was conducted to evaluate the efficacy of LuA, LuB, and LuE in inhibiting proliferation of cancer cells.
# (§2) Four human tumor cell lines, i.e., gastric adenocarcinoma (AGS, BGC-823), lung carcinoma (A549), and lung adenocarcinoma (SPC-A-1), were purchased from the Cell Bank of Shanghai Institute of Cell Biology, Chinese Academy of Sciences, and cultured in Iscove's Modified Dulbecco's Medium (IMDM) containing 10% fetal bovine serum (FBS) in an incubator at 37° C. under 5% CO2. Cells of 70˜80% confluence were trypsinized, resuspended in IMDM medium containing 10% FBS at 1×10^5 cells/ml, and seeded in 96-well plates (100 μl in each well). The plates were incubated at 37° C. under 5% CO2 overnight.
# (§3) A DMSO solution containing LuA, LuB, or LuE was added to each “treatment” well. Efficacy of LuA, LuB, and LuE at six concentrations, 100, 30, 10, 3, 1, and 0.3 μg/ml, was studied. Wells, to each of which a DMSO solution (containing no LuA, LuB, or LuE) was added, were used as “control;” and wells, to each of which no LuA, LuB, LuE, or DMSO was added, were used as “background.” The plates were then incubated at 37° C. under 5% CO2 for 48 hrs.
# (§4) 10 μl of 3-(4,5-dimethyl-thiazol-2-yl)-2,5-diphenyl tetrazolium bromide in phosphate buffered saline (PBS), 5 mg/ml, was added to all wells except the background wells. After incubation for 3-4 hrs, the cells were collected by spinning at 1000 rpm for 15 minutes, followed by removal of the supernatants by vacuum. The cells thus collected in each well, after wash with 150 μl of PBS, were placed in 150 μl of DMSO.
# (§5) The plates were then placed on a shaker at 150 rpm for 15 minutes to dissolve the precipitate in each well. Absorbance was measured at 492 nm using a microplate reader.
# (§6) Inhibition ratios for cells treated with LuA, LuB, and LuE, respectively, were calculated according to the following equation: [formula]
# (§7) A software program, XLfit (ID Business Solutions), was used to calculate the concentrations of LuA, LuB, and LuE required to reach 10, 20, . . . 90% inhibition (i.e., IC10, IC20, . . . IC90) for each tested tumor cell line.
# [2] = test system: gastric adenocarcinoma (BGC-823); test: in vitro MTT proliferation assay, BGC-823 cells; settings: 48 hrs; for inhibition of cancer cell line BGC-823: 0.3-100 μg/ml, absorbance at 492 nm; for IC50 values for BGC-823: calculated with XLfit
# Description: as §1, §2, §3, §4, §5, §6, §7
# [3] = test system: lung carcinoma (A549); test: in vitro MTT proliferation assay, A549 cells; settings: 48 hrs; for inhibition of cancer cell line A549: 0.3-100 μg/ml, absorbance at 492 nm; for IC50 values for A549: calculated with XLfit
# Description: as §1, §2, §3, §4, §5, §6, §7
# [4] = test system: lung adenocarcinoma (SPC-A-1); test: in vitro MTT proliferation assay, SPC-A-1 cells; settings: 48 hrs, 0.3-100 μg/ml, absorbance at 492 nm
# Description: as §1, §2, §3, §4, §5, §6, §7
Structure (SMILES),inhibition of cancer cell line AGS [1],IC50 values for AGS [1],inhibition of cancer cell line BGC-823 [2],IC50 values for BGC-823 [2],inhibition of cancer cell line A549 [3],IC50 values for A549 [3],inhibition of cancer cell line SPC-A-1 [4]
"C=C1C(=O)[C@]23C[C@H]1C[C@H](OC(C)=O)[C@H]2[C@]1(C)C[C@H](OC(C)=O)[C@H](OC(C)=O)C(C)(C)[C@H]1[C@@H](OC(C)=O)[C@@H]3O [LuA, Lushanrubescensin A]",effectively inhibited,particularly low,effectively inhibited,particularly low,effectively inhibited,particularly low,effectively inhibited
"C=C1C(=O)[C@]23C[C@H]1C[C@H](O)[C@H]2[C@]1(C)C[C@H](OC(C)=O)[C@H](OC(C)=O)C(C)(C)[C@H]1[C@@H](OC(C)=O)[C@@H]3O [LuB, Lushanrubescensin B]",effectively inhibited,particularly low,effectively inhibited,particularly low,effectively inhibited,particularly low,effectively inhibited
"C=C1C(=O)[C@]23C[C@H]1C[C@@H](O)[C@H]2[C@]1(C)C[C@H](OC(C)=O)[C@H](OC(C)=O)C(C)(C)[C@H]1[C@@H](OC(C)=O)[C@@H]3O [LuE, Lushanrubescensin E]",effectively inhibited,,effectively inhibited,,effectively inhibited,,effectively inhibited
